≈ marks a conversion by molar mass, not a printed value.
How the values were obtained:
[1] = UCSD infection assay, host cell cytotoxicity (CC50); type: cell-based; details: host macrophages infected with L. donovani; cytotoxicity against host macrophages
Whole blood stability = type: in vitro ADME; details: criterion: no % reduction over 120 min
HepG2 cells = assay: HepG2 cytotoxicity; type: cell-based; details: Homo sapiens; toxicity against HepG2 cells
[2] = tested on: L. major (strain LV39) intracellular amastigotes infecting THP-1 cells; assay: High content intracellular amastigote assay in THP-1 cells (Assay Conditions B); type: cell-based, Leishmania major; details: Leishmania major; THP-1 host cells
Procedure: Assay Conditions B: THP-1 cells (human acute monocytic leukemia cell line—ATCC TIB202) were grown in RPMI supplemented with 10% Fetal Bovine Serum (FBS) and 50 μM 2-mercaptoethanol at 37° C. in 5% CO2. THP-1 were seeded in microwell plates at 5×10^5 cells/mL density and treated with 0.1 μM phorbol myristate acetate (PMA, Sigma) at 37° C. for 48 h for differentiation into adherent, non-dividing macrophages. After activation by PMA, cells were washed and incubated with complete RPMI medium containing stationary phase Leishmania promastigotes (L. major: strain LV39; L. donovani, strain 1S/Cl2D) at a 1:15 parasite-cell ratio. Compounds were added and incubated at 37° C. for 72 h. Cells were then washed with phosphate-buffered saline (PBS), fixed for 30 minutes with 4% formaldehyde, rinsed again with PBS, stained for 2 h with 4′,6′-diamidino-2-phenylindole (DAPI 300 nM) and finally washed with PBS. In a collaborative effort to identify new antileishmanial chemotypes with minimal host cell cytotoxicity, compounds from the Boston University Center for Molecular Discovery (BUCMD) screening collection were assessed in a phenotypic, high content primary screen at the University of California's Center for Discovery and Innovation in Parasitic Diseases (CDIPD) for the ability to inhibit growth of L. donovani intracellular amastigotes infecting THP-1 cells. […] Dose-response testing in L. donovani (both intracellular amastigotes and promastigotes) confirmed concentration-dependent growth inhibition of both morphologies of the parasite at low micromolar EC50 values for both compounds (Table 1).

host THP-1 macrophages = assay: GSK inMac assay, host cell toxicity readout (LD MAC); type: cell-based, human
Summary of the method: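 MAC EC50 reflects THP-1 host cell counts, measured within GSK's inMac L. donovani infection assay that also scores intracellular amastigotes and infected-cell percentage.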

[3] = Artificial membrane permeability (AMP); type: in vitro ADME; details: PAMPA, pH 7.4
Summary of the method: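 Passive permeation through 1.8% phosphatidylcholine in 1% decane membrane, 50 mM phosphate buffer pH 7.4 on donor and receiver sides. After 45 min pre-shaking, compounds incubated 3 h at room temperature with shaking, in duplicate; donor and receiver solutions quantified by LC/MS.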

[4] = tested on: L. donovani intracellular amastigotes infecting THP-1 cells; assay: High content intracellular amastigote assay in THP-1 cells (Assay Conditions B; CDIPD screen); type: cell-based, Leishmania donovani; details: Leishmania donovani; THP-1 host cells
Summary of the method: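 THP-1 cells differentiated with 0.1 μM PMA for 48 h, then infected with stationary-phase promastigotes (L. major LV39 or L. donovani 1S/Cl2D) at 1:15 parasite-cell ratio. Compounds applied for 72 h at 37° C. Cells formaldehyde-fixed, DAPI-stained, imaged to count amastigotes and host cells.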

[5] = Kinetic aqueous solubility by CLND; type: physicochemical; details: kinetic from dmso stock, high-throughput CLND
Procedure: Solubility of compounds using ChemiLuminescent Nitrogen Detection (CLND) was measured as described. Solubility of compounds using Charged Aerosol Detection (CAD) was measured as described. Solubility of solid compounds in Fasted Simulated Intestinal Fluid (FaSSIF) was measured as described.

human serum albumin = human serum albumin (Homo sapiens, UniProt P02768); assay: Human serum albumin (HSA) binding, chromatographic; type: in vitro ADME
Procedure: The percentage of compound bound to human serum albumin was measured using a chromatographic method as described. Briefly, each compound was assayed on an immobilized HSA column and gradient retention times measured, with chromatographic peak detection by UV. Each retention time was then converted to a % HSA bound value using a calibration set of compounds with a known % HSA binding.

[6] = Plasma protein binding (RED); type: in vitro ADME
Procedure: The unbound fraction of compound 1 in plasma was measured using a commercial RED (Rapid Equilibrium Dialysis) plate with inserts (Thermo) with a molecular weight membrane cut off of 8K. The relevant volume of spiked sample matrix was added into the corresponding sample chambers of the RED insert. Three volume equivalents of dialysis buffer were added to the buffer chamber. The dialysis plate was sealed and incubated at 37° C. on a plate shaker for approximately 4 h at 100 rpm. An equivalent volume was removed from each of the three buffer sample chambers and placed into its own well in a clean plate. A specific volume of control matrix was added to each buffer sample for matrix matching. Next, >3× volume of precipitation solvent (acetonitrile+internal standard) was added and the plate was centrifuged. A measured volume of the resulting supernatants was transferred into a clean plate and a specific volume of analytical grade water was added to all samples. Samples were analyzed using a compound-specific LC-MS/MS method to generate analyte peak area ratios which are representative of bound and free drug.

[7] = Property forecast index (PFI = ChromLogD7.4 + aromatic rings); type: physicochemical
[8] = Homo sapiens, THP-1, cytotoxicity against host THP-1 macrophages

human serum albumin, sequence (P02768 25-609): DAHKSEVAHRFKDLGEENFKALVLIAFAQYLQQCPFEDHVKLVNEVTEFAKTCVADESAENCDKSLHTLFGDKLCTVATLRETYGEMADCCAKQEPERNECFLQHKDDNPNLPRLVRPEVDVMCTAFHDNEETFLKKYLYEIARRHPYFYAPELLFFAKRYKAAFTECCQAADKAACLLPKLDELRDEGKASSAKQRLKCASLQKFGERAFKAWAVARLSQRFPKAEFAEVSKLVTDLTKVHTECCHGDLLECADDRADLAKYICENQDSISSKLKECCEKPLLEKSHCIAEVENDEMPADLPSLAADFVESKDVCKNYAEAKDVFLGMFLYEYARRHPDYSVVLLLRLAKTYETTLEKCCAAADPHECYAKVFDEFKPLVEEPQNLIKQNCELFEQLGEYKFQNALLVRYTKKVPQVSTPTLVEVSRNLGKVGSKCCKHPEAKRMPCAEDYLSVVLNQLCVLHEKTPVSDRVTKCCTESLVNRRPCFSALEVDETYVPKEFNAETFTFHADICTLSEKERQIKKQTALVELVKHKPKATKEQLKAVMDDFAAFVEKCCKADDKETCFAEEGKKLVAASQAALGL

| Compound | CC50 at 72 h [1] | Whole blood stability (Whole blood stability) | EC50 (HepG2 cells) | EC50 [2] | EC50 (host THP-1 macrophages; [8]) | EC50 (host THP-1 macrophages; cytotoxicity against host THP-1 macrophages, listed as rac-1) | Papp at 3 h [3] | EC50 [4] | solubility ([5]; aqueous medium) | HSA Binding (human serum albumin) | fraction unbound at 4 h [6] | PFI [7] | solubility ([5]; aqueous medium (not further specified)) |
| --- | --- | --- | --- | --- | --- | --- | --- | --- | --- | --- | --- | --- | --- |
| COc1ccc(N2C(=O)c3[nH]nc(CC(C)C)c3C2c2ccc(F)cc2)cc1 (racemic) [Compound 1, 4-(4-fluorophenyl)-3-isobutyl-5-(4-methoxyphenyl)-4,5-dihydropyrrolo[3,4-c]pyrazol-6(1H)-one] | > 20 µM | Pass | 63.1 µM | 1300 nM | 15.8 µM | 15.9 µM | 34.5 ×10⁻⁶ cm/s | 2.5 µM | 107 µM (≈ 40.6 µg/mL) | 96.4% | 0.025 | 8.4 | – |
| COc1ccc(N2C(=O)c3[nH]nc(CC(C)C)c3C2c2ccccc2)cc1 (centres unmarked) [Compound 2] | – | – | 79.4 µM | 1700 nM | 31.6 µM | – | 37 ×10⁻⁶ cm/s | 3.7 µM | – | 95.8% | – | 8.4 | 90 µM (≈ 32.5 µg/mL) |

Source: patent US20230381142A1, “ANTILEISHMANIAL COMPOUNDS, COMPOSITIONS AND USE THEREOF” (TRUSTEES OF BOSTON UNIVERSITY, priority 2022, published 2023)
